Experimental data from publication PMC9705869, “Chromophorylation of a Novel Cyanobacteriochrome GAF Domain from Spirulina and Its Response to Copper Ions” (Journal of Microbiology and Biotechnology, 2020).

Target: T1, SPI1085g2 (Spirulina subsalsa, UniProt A0ABT3L563)
T1 construct: gene K4A83_08105; second GAF domain (GAF2) only, residues 216-369 of SPI1085; N-terminal polyhistidine tag kept (pETDuet); expressed in E. coli BL21(DE3) with ho1::pcyA or ho1::pebS
T1 sequence (A0ABT3L563 216-369): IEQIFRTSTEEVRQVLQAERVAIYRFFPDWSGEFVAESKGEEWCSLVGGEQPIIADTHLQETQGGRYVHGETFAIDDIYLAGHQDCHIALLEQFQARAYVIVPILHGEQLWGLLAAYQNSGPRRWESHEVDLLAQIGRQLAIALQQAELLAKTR
Experiment: zinc-induced fluorescence on SDS-PAGE; absorbance and acid-urea denaturation
Type: binding
Conditions: covalent, KPB pH […]

| Structure (SMILES) | zinc-induced fluorescence on SDS-PAGE; absorbance and acid-urea denaturation (chromophore assembled in E. coli co-expressing ho1 and pebS) | zinc-induced fluorescence on SDS-PAGE; absorbance and acid-urea denaturation (chromophore assembled in E. coli co-expressing ho1 and pcyA) |
| --- | --- | --- |
| C=CC1=C(C)[C@@H](Cc2[nH]c(/C=C3N=C(/C=C4\NC(=O)[C@H](C)\C4=C/C)C(C)=C\3CCC(=O)O)c(CCC(=O)O)c2C)NC1=O [PEB, phycoerythrobilin] | resulted in highly efficient binding of PEB to SPI1085g2 |  |
| C/C=C1/C(=C/c2[nH]c(/C=C3N=C(/C=C4\NC(=O)C(CC)=C4C)C(C)=C\3CCC(=O)O)c(CCC(=O)O)c2C)NC(=O)[C@@H]1C [PCB, phycocyanobilin] |  | SPI1085g2 can covalently bind PCB, as demonstrated by the zinc-dependent fluorescence observed by SDS-PAGE |
